Source: patent US20220249399A1, “COMPOSITION COMPRISING AN ANTI-OXIDANT TO PRESERVE CORNEAL TISSUE” (University of lowa Research Foundation, priority 2019, published 2022)
“Also recorded” adds a separate entry of the source. Marks after values point to notes of the source that are not given here.

System: human donor corneal endothelial cells
Experiment: Mitochondrial respiration assay (Seahorse XFe24 extracellular flux analyzer) of donor corneal endothelium after storage in supplemented Optisol GS
Type: cell-based
Conditions: for ATP Production, Mean (SD) / Maximal Respiration, Mean (SD) / Non-mitochondrial Respiration, Median [IQR] / Proton Leak, Mean (SD) / Spare Respiratory Capacity, Mean (SD) / Basal, Mean (SD): OCR per cell (pmole/min/cell)
Description: Human corneal tissue pairs were obtained by Iowa Lions Eye Bank (ILEB) from nondiabetic donors 60-75 years old and stored in Optisol GS (Bausch+Lomb, Irvine, Calif.) at 4° C. following procurement in accordance with Eye Bank Association of America and ILEB policies and procedures. For 5 days prior to testing, but within 9 days of procurement, one stored tissue from a corneal pair was treated with 10 μM CoQ10, while the mate tissue was treated with diluent only as a control. Descemet membrane and endothelial cell punches were collected and mounted onto the bottom of a Seahorse assay plate (cells facing upward). Mitochondrial respiration was assayed by measuring oxygen consumption using the Seahorse XFe24 Extracellular Flux Analyzer (Agilent Technologies, Santa Clara, Calif.) over 120 minutes (9-minute intervals). Punches were labeled with a nuclear counterstain (DAPI) and remaining tissues were mounted onto slides and labeled with 488A-Annexin V, Ethidium Homodimer III, and Hoechst 33342 (Apoptotic, Necrotic, and Healthy Cells Quantification Kit; Biotium, Fremont, Calif.) to assay cell health. Nuclei were counted in each punch to normalize respirometry data. Immunohistochemistry densitometry was measured using ImageJ software.
Human donor whole globe eye pairs were obtained by Iowa Lions Eye Bank (ILEB) and the anterior portion of the eyes were removed. For 14 days, one cornea was stored from a corneal pair treated with 1 mM ascorbate-2-phosphate, while the mate tissue was treated with diluent only as a control. Descemet membrane and endothelial cell punches were collected and mounted onto the bottom of a Seahorse assay plate (cells facing upward). Mitochondrial respiration was assayed by measuring oxygen consumption using the Seahorse XFe24 Extracellular Flux Analyzer (Agilent Technologies, Santa Clara, Calif.) over 120 minutes (9-minute intervals). Punches were labeled with a nuclear counterstain (DAPI) and nuclei were counted in each punch to normalize respirometry data. […]
Tissue preparation and extracellular flux assays for mitochondrial respiration were performed as described in Greiner et al. (2015). In brief, after pre-stripping the EDM, 3 mm diameter EDM punches were mounted in wells of a XF24 microplate (Agilent Technologies, Santa Clara, Calif.). After acclimation for one hour at 37° C. in non-buffered assay media, metabolic activity of the EDM samples was quantified using a commercial kit (XF Cell Mito Stress Test Kits; Agilent Technologies) on a Seahorse XFe24 extracellular flux analyzer (Agilent Technologies). Following extracellular flux analysis, tissues were labeled fluorescently using a 1:1000 Sytox Green nucleic acid stain in the microtiter plate (Life Technologies, Grand Island, N.Y.) and imaged on an Olympus IX-81 inverted microscope (Olympus America, Center Valley, Pa.) using a FITC filter. Cell counts were determined using Image J (https://imagej.nih.gov/ij/download.html) and used to compute the oxygen consumption rate per cell (OCR; pmole/min/cell). Raw OCR values were used to calculate several different key parameters of metabolic function per manufacturer's directions (Agilent Technologies), as in Aldrich et al. (2017). The parameters and calculations used in this study were the main outcome measures, including basal respiration, ATP-associated oxygen consumption, proton [H^+] leak, maximal respiration, spare respiratory capacity, non-mitochondrial respiration, and coupling efficiency as described in Schneider et al. and Goldstein et al. (2018).
Mitochondrial Respiration Assay: 3 mm punches of central and peripheral endothelium-Descemet membrane complex (EDM) were secured to the bottom of cell culture microplate wells or CECs were grown directly onto microplate.

[1] = 10 μM CoQ10 (ubiquinol), 5 days in Optisol GS, vs diluent-treated mate cornea, 13 or 14 paired corneas
[2] = 10 μM ubiquinol vs diluent-treated mate cornea, 5 days, n = 13
[3] = 10 μM ubiquinol, 5 days in Optisol-GS, n = 13
[4] = Example 13: 10 μM ubiquinol, 5 days in Optisol-GS, N=13, vs controls
[5] = palmitate-BSA treated tissues (100 μM), 5 days, n = 7

ubiquinol
non-mitochondrial respiration (1 μM coQ10, among doses 0.5, 1, 5, 7.5 μM): largest increase in non-mitochondrial respiration
mitochondrial spare respiratory capacity (1 μM coQ10, tissues in storage (compared with the 10 μM dose)): did not show a bolstering of mitochondrial spare respiratory capacity function
proton leak increased (10 μM CoQ10 (ubiquinol), 5 days in Optisol GS at 4° C., vs diluent-treated mate cornea, 13 or 14 paired corneas): 34%
maximal respiration increased [1]: 97%
spare respiratory capacity increased [1]: 133%
ATP Production, Mean Difference: Ubiquinol-Control (95% CI) [2]: −0.0001 (−0.0033, 0.0032)
Basal, Mean Ratio: Ubiquinol/Control (95% CI) [2]: Ratio: 1.12 (0.88, 1.43)
Coupling Efficiency, Mean Difference: Ubiquinol-Control (95% CI) [2]: −0.0655 (−0.1550, 0.0240)
Maximal Respiration, Mean Ratio: Ubiquinol/Control (95% CI) [2]: Ratio: 1.93 (1.31, 2.85)
Non-mitochondrial Respiration, Median Difference: Ubiquinol-Control (95% CI) [2]: 0.000013^# (−0.00255, 0.00123)
Proton Leak, Mean Ratio: Ubiquinol/Control (95% CI) [2]: Ratio: 1.80 (1.01, 3.21)
Spare Respiratory Capacity, Mean Ratio: Ubiquinol/Control (95% CI) [2]: Ratio: 2.74 (1.61, 4.66)
Coupling Efficiency, Mean (SD) [3]: 0.5303 (0.1141)
ATP Production, Mean (SD) [3]: 0.0116 (0.0049)
Maximal Respiration, Mean (SD) [3]: 0.0998 (0.0799)
Non-mitochondrial Respiration, Median [IQR] [3]: 0.00662
Proton Leak, Mean (SD) [3]: 0.0091 (0.0049)
Spare Respiratory Capacity, Mean (SD) [3]: 0.0781 (0.0734)
Basal, Mean (SD) (10 μM ubiquinol, 5 days in Optisol-GS, n = 13 matched tissues): 0.0202 (0.0087)
maximal respiration increased [4]: 93%
proton leak increased [4]: 80%
spare respiratory capacity increased [4]: 174%
Basal, Mean (SD) (palmitate-BSA treated tissues (100 μM), 5 days in Optisol-GS, n = 7 matched tissues): 0.0251 (0.0138)
Coupling Efficiency, Mean (SD) [5]: 0.5376 (0.1891)
ATP Production, Mean (SD) [5]: 0.0155 (0.0090)
Maximal Respiration, Mean (SD) [5]: 0.1102 (0.0309)
Non-mitochondrial Respiration, Median [IQR] [5]: 0.00809
Proton Leak, Mean (SD) [5]: 0.0106 (0.0075)
Spare Respiratory Capacity, Mean (SD) [5]: 0.0833 (0.0212)
oxygen consumption rate (OCR) of CEC (ubiquinol supplemented vs non-supplemented CEC (FIG. 1)): High OCR; also recorded: increased oxygen consumption rate
